Laboratory results as given in patent US11358971B2, “Prodrugs of modulators of the NMDA receptor” (H. Lundbeck A/S, priority 2019, dated 2022).
pKd: −log10 of the molar value. Entries after “also recorded” stand apart in the source; their conditions may differ.

Tests used:
[1] = biological target: NR1s1s2 (ligand binding domains of the NMDA receptor), glycine site; conditions: radioligand parameter stated in assay method; obtained from Sigma Aldrich; cited from earlier work
[2] = system: tonic hind limb extensor seizure; experiment: Maximal Electro Shock Threshold (MEST); format: in vivo; conditions: 3, 10 and 30 mg/kg subcutaneously, 30 min before test; vs vehicle 10% HPβCD; rats
Description: Naïve rats were acclimatised to the procedure room in their home cages, with food and water available ad libitum. All rats were weighed at the beginning of the study and randomly assigned to treatment groups. […] Rats were individually assessed for the production of a tonic hind limb extensor seizure using a Hugo Sachs Electronik stimulator, which delivered an adjustable constant current (1-300 mA) of 0.3 seconds duration via corneal electrodes. The stimulus intensity was varied, from a typical baseline of 25 mA, by an ‘up and down’ method of shock titration. […] This procedure continued for all rats within a treatment group. […] Significant differences between drug-treated animals and vehicle were assessed according to Litchfield and Wilcoxon (Litchfield J, Wilcoxon F. A simplified method for evaluating dose-effect experiments. J Pharmacol Exp Ther. 1949; 96(1): 99-113).

time of immobility = experiment: Forced swim test; format: in vivo; conditions: 3, 10 and 30 mg/kg subcutaneously, 24 h before test; vs vehicle; Wistar Kyoto rats
Procedure: Adult male Wistar Kyoto rats from Envigo (former Harlan; Blackthorn, UK). Animals are maintained under controlled conditions (21±1° C., 37±1%, 12/12 h light/dark cycles, lights on at 8 a.m.) with food and water available ad libitum. In all studies WKY rats were randomly allocated to a maximum of 5 treatment groups (n=20 per group). […] The dosing of the animals were performed by subcutaneous injection 24 h before test g. The WKY rats were individually placed into a glass cylinder (50 cm height, 20 cm diameter) containing 30 cm of water at 25±1° C. for a 5 min test phase. The test session recorded (using a video camera placed above the cylinder for subsequent behavioural analysis) the time of immobility (s). One-way analysis of variance (ANOVA) was used to detect statistical significance in the FST data. The Fisher least significant difference (LSD) test was used for post hoc analyses. Probability values of P<0.05 were considered as statistically significant. Statistical analyses were performed using SPSS.

[3] = system: high frequency oscillation; experiment: Resting state Electroencephalography (rsEEG); format: in vivo; conditions: 20 mg/kg subcutaneously in 10% HPβCD; 30-40 min after dosing; vs vehicle; rats
Procedure: On the day of surgery, rats (270-300 g) were anesthetized with a 0.25 ml/100 g subcutaneous (SC) injection of 1:1 hypnorm/Dormicum and mounted in a stereotaxic frame (David Kopf Instruments, Tujunga, Calif., USA) with blunt ear bars. Marcain (0.2 ml SC) was injected under the scalp, and gel (Neutral Opthta Eye Gel) put on the eyes to prevent the mucous membrane drying out. Holes were burred in the skull to allow for placement of two depth electrodes (E363-series; PlasticsOne, Roanoke, Va., USA) in left and right pre/infralimbic PFC (AP: 3.0 mm from the bregma suture, Medial-Lateral (ML): +/−0.7 mm from the sagittal suture and DV: 3.0 mm from the dura) and thalamus (AP: −2.8 mm from the bregma suture, ML: +0.7 mm from the sagittal suture and DV: 4.4 mm from the dura) and three screw electrodes at vertex (AP: −2 mm from the bregma suture, ML: +2.0 mm from the sagittal suture), a reference electrode (AP: +8.0 mm and ML: −2.0 mm), and a ground electrode (AP: −5 mm, ML: +5 mm). […] Animal bodyweights were recorded daily. […]
The development of the locomotive state-detection algorithm and the state-specific pharmaco-EEG analyses were carried out in MATLAB R2017a (The MathWorks, Inc., Natick, Mass., USA) using functions from the sigTOOL toolbox. Significant differences between drug-treated animals and vehicle were assessed according to Turkey's honest significant difference.

Structure (SMILES)	pKd [1]	effects on the maximal electro shock threshold (seizure threshold CC50 current) [2]	time of immobility in forced swim test (time of immobility)	effects in resting state Electroencephalography (high frequency oscillation, baseline-normalized power) [3]
O=C(O)C(=Cc1c(C(=O)O)[nH]c2cc(Cl)cc(Cl)c12)c1ccccc1 [[3H]-MDL-105,519]	8.89			
COC(=O)[C@H](N)CNC(=O)c1cc2nccc(C)c2s1 [Compound 2c, Methyl (R)-2-amino-3-(7-methylthieno[3,2-b]pyridine-2-carboxamido)propanoate]		dose dependent effects	significant effects in time of immobility at the 30 mg/kg dose	significant effects in high frequency oscillation; also recorded: significant effects in resting state Electroencephalography
